Measured values from patent US10136663B2, “Curcuminoid-based compound/stevioside-containing complex for the prevention and treatment of an influenza virus infection” (priority 2011, dated 2018).
Read-outs that look alike come from different tables or passages of the source.

Key:
[1] = Curcumin content of curcumin/stevioside complex solution; type: physicochemical; conditions: in 100 g/L of the stevioside solution, after ultrasonication at 70° C. and oven reaction
[2] = system: influenza virus type A (H9N2); design: species or system chicken; conditions: in vivo, po
[3] = system: influenza virus H9N2 (A/Chicken/Korea/MS96/96); conditions: dog
[4] = system: influenza virus H9N2 (A/Chicken/Korea/MS96/96); conditions: dog; remark: listed apart in the source

SMILES: COc1cc(/C=C/C(=O)/C=C(O)/C=C/c2ccc(O)c(OC)c2)ccc1O [Curcumin, curcumin]
- maximum curcumin in the resulting solution [1]: 3.5 g/L

SMILES: C=C1C[C@@]23CC[C@H]4[C@@](C)(CCC[C@@]4(C)C(=O)O[C@@H]4O[C@H](CO)[C@@H](O)[C@H](O)[C@H]4O)[C@@H]2CC[C@]1(O[C@@H]1O[C@H](CO)[C@@H](O)[C@H](O)[C@H]1O[C@@H]1O[C@H](CO)[C@@H](O)[C@H](O)[C@H]1O)C3 [G4, stevioside]
- Mean virus titer, Cecal Tonsil [2]: 5.30 ± 3.5 log10EID50/g
- Mean virus titer, Trachea [2]: 5.80 ± 1.3 log10EID50/g
- Virus re-isolation, Cecal Tonsil (number of virus-positive chicken/number of inoculated chickens) [2]: 8/10
- Virus re-isolation, Trachea (number of virus-positive chicken/number of inoculated chickens) [2]: 10/10

SMILES: CCOC(=O)C1=C[C@@H](OC(CC)CC)[C@H](NC(C)=O)[C@@H](N)C1 [Tamiflu, reference compound]
- SI, selective index, CC50/EC50 [3]: >200
- SI, selective index, CC50/EC50 [4]: >200
